Data as given in US10092541B2, “Methods for the treatment of diseases ameliorated by PDE4 inhibition using dosage titration of apremilast” (CELGENE CORPORATION, priority 2014, dated 2018).
Marks after values point to notes of the source that are not given here.

System: patients with moderate to severe plaque psoriasis
Assay: Esteem 2: randomized, double-blind, placebo controlled, multicenter clinical study in psoriasis
Assay type: in vivo, human
Details: for PASI-75, % (LOCF): primary endpoint; for sPGA score 0 (clear) or 1 (almost clear), % (LOCF): with ≥2-point reduction from baseline; for PPPGA score 0 (clear) or 1 (almost clear), %: patients with palmoplantar psoriasis (PPPGA ≥3), n = 26; for ScPGA score 0 (clear) or 1 (minimal), %: patients with scalp psoriasis (ScPGA ≥3), n = 176
Experimental: In the study 413 patients were enrolled; patients ranged in age from 18 to 83 years, with an overall median age of 46 years. The mean baseline body surface area (BSA) involvement was 25.19% (median 21.0%), the mean baseline PASI score was 19.07 (median 16.80), and the proportion of patients with sPGA score of 3 (moderate) and 4 (severe) at Baseline were 70.0% and 29.8%, respectively. Patients were randomized to Apremilast in an amount of 30 mg twice per day (after the initial dose titration schedule) or placebo for the first 16 weeks, and from Weeks 16 to 32, all patients received Apremilast in an amount of 30 mg twice per day.
Target Dose: 30 mg (po) BID
Day 1: 10 mg in the morning
Day 2: 10 mg morning; 10 mg after noon
Day 3: 10 mg morning; 20 mg after noon
Day 4: 20 mg morning; 20 mg after noon
Day 5: 20 mg morning; 30 mg after noon
During the Randomized Treatment Withdrawal Phase (Weeks 32-52), patients originally randomized to Apremilast who achieved at least a 50% reduction in PASI score (PASI-50) were re-randomized to either placebo or Apremilast 30 mg BID. Patients who were re-randomized to placebo and who lost 50% of the improvement in PASI at Week 32 compared to Baseline, were retreated with Apremilast 30 mg BID.

[1] = 61 patients with ≥PASI-50 at Week 32 re-randomized to apremilast
[2] = Week 16, 30 mg BID, n = 274, LOCF
[3] = Week 16, 30 mg BID, n = 274, LOCF, listed as Apremilast
[4] = Week 16, 30 mg BID, n = 274, listed as Apremilast
[5] = Week 16, 30 mg BID, patients with baseline DLQI >5, n = 226
[6] = Week 16, 30 mg BID, patients with nail psoriasis (score ≥1), n = 175
[7] = Week 16, 30 mg BID, listed as Apremilast
[8] = initially randomized to apremilast, did not achieve PASI-50 at Week 32
[9] = patients treated with apremilast from baseline
[10] = placebo at baseline, switched to apremilast at Week 16, achieved PASI-50 at Week 32
[11] = placebo at baseline, switched to apremilast at Week 16, did not achieve PASI-50 at Week 32

CCOc1cc([C@@H](CS(C)(=O)=O)N2C(=O)c3cccc(NC(C)=O)c3C2=O)ccc1OC [apremilast, (+)-2-[1-(3-ethoxy-4-methoxyphenyl)-2-methylsulfonylethyl]-4-acetylaminoisoindoline-1,3-dione]
Non-overlapping confidence intervals vs placebo in improvement in pruritus and skin discomfort/pain from baseline, first detected (30 mg BID): as early as Week 2
Non-overlapping confidence intervals vs placebo in mean percentage improvement in PASI from baseline, first detected (30 mg BID, first post-baseline visit): as early as Week 2
regained PASI-50 response after re-treatment (32 patients re-randomized to placebo who lost 50% of PASI improvement and re-initiated apremilast before Week 52): 65.6%
PASI-75 at Week 52 (36 patients re-randomized to apremilast who were also PASI-75 responders at Week 32): 66.7%
PASI-50 response at Week 52 [1]: 80.3%
mean percent change in PASI at Week 52 [1]: −74.4%
≥70% improvement from baseline in PASI score at Week 52 [1]: 60.7%
decrease in pruritus severity from baseline (Week 16, 30 mg BID): ~50%
decrease in skin discomfort/pain severity from baseline (Week 16, 30 mg BID): ~50%
PASI-50, % (LOCF) (Week 16, 30 mg BID, n = 274): 55.5%
PASI-50, % (NRI) (Week 16, 30 mg BID, n = 274): 53.6* %
PASI-75, % (NRI) (Week 16, 30 mg BID, n = 274): 28.1* %
PASI-90, % (LOCF) (Week 16, 30 mg BID, n = 274): 8.8%
sPGA score 0 (clear) or 1 (almost clear), % (NRI) (Week 16, 30 mg BID, n = 274): 19.7* %
Mean % change in PASI score [2]: −50.9%
Mean change in DLQI score [2]: −6.7*
Mean change in pruritus VAS score, mm [2]: −33.5 mm
Mean change in skin discomfort/pain VAS score, mm [2]: −28.5 mm
Median % change in PASI score [2]: −56.0%
Mean % change in PASI score [3]: −50.9* %
Mean change in pruritus VAS score, mm [3]: −33.5* mm
Mean change in skin discomfort/pain VAS score, mm [3]: −28.5* mm
PASI-50, % (LOCF) [4]: 55.5* %
PASI-90, % (LOCF) [4]: 8.8^‡ %
PASI-75, % (LOCF) (Week 16, 30 mg BID, n = 274): 28.8%
PASI-75, % (LOCF) [4]: 28.8* %
sPGA score 0 (clear) or 1 (almost clear), % (LOCF) (Week 16, 30 mg BID, n = 274): 20.4%
sPGA score 0 (clear) or 1 (almost clear), % (LOCF) [4]: 20.4* %
DLQI (decrease of ≥5 points) + PASI-50 response, % [5]: 49.1* %
DLQI response (decrease of ≥5 points), % [5]: 70.8* %
Mean % change in NAPSI score [6]: −29.0** %
NAPSI-50, % [6]: 44.6%
NAPSI-50, % (Week 16, 30 mg BID, patients with nail psoriasis (score ≥1), n = 175, listed as Apremilast): 44.6* %
PPPGA score 0 (clear) or 1 (almost clear), % (Week 16, 30 mg BID): 65.4%
PPPGA score 0 (clear) or 1 (almost clear), % [7]: 65.4^|| %
ScPGA score 0 (clear) or 1 (minimal), % (Week 16, 30 mg BID): 40.9%
ScPGA score 0 (clear) or 1 (minimal), % [7]: 40.9* %
Response rates in placebo patients who switched to apremilast at Week 16 vs apremilast in both treatment periods (Weeks 16 to 32): response rates similar
Severity of the majority of adverse events (did not lead to discontinuation): mild to moderate
5 most common adverse events (AEs) (human, in vivo): diarrhea, nausea, upper respiratory tract infection, tension headache, and headache
Discontinuation due to upper respiratory tract infection (human, in vivo): No patient discontinued
Discontinuations due to AEs: diarrhea (human, in vivo): 0.8%
Discontinuations due to AEs: headache (human, in vivo): 0.4%
Discontinuations due to AEs: nausea (human, in vivo): 1.2%
Discontinuations due to AEs: tension headache (human, in vivo): 0.2%
PASI-50 at Week 52 [8]: 32.8%
mean percent change from baseline in PASI score at Week 52 [8]: −45.7%
median time to first loss of 50% of the PASI improvement obtained at Week 32 (patients re-randomized to apremilast): 21.9 weeks
PASI, sPGA, and DLQI responses from Weeks 16 to 32 [9]: generally maintained
PASI-50, PASI-75, and PASI-90 responses from Weeks 16 to 32 [9]: generally maintained
PASI-50 at Week 52 [10]: 83.1%
mean percent change in PASI from baseline at Week 52 [10]: −71.8%
PASI-50 at Week 52 [11]: 16.0%
mean percent change from baseline in PASI at Week 52 [11]: −24.7%
signs and symptoms of psoriasis (study conclusion): significantly improved
